Results taken from ChEMBL document CHEMBL1177643, “Synthesis, DNA-binding ability and anticancer activity of benzothiazole/benzoxazole-pyrrolo[2,1-c][1,4]benzodiazepine conjugates” (Bioorg Med Chem, 2010).

System: Calf thymus DNA
Test: Binding affinity to calf thymus duplex-form DNA assessed as melting temperature at 1:5 compound/DNA ratio after 18 hrs
Type: nucleic-acid assay
Conditions: Bos taurus

SMILES | ΔTm [°C]
COc1cc2c(cc1OCCCCCOc1ccc(-c3nc4ccccc4o3)cc1)N=C[C@@H]1CCCN1C2=O | 4.3
COc1cc(-c2nc3ccccc3o2)ccc1OCCCCCOc1cc2c(cc1OC)C(=O)N1CCC[C@H]1C=N2 | 4.2
